In ChEMBL document CHEMBL1201861, “Genomics of Drug Sensitity in Cancer screening data, Wellcome Trust Sanger Institute”:

Legend:
Type in all cases: functional, cell-based
Calu-1 = test: SANGER: Inhibition of human Calu-1 cell growth in a cell viability assay.
TT = test: cells; conditions: Homo sapiens
Description: SANGER: Inhibition of human TT cell growth in a cell viability assay.

NCI-H1734 = test: cells; conditions: Homo sapiens;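 also: growth inhibition of human NCI-H1734 cells, read out with a cell viability assay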
Description: SANGER: Inhibition of human NCI-H1734 cell growth in a cell viability assay.

IPC-298 = test: SANGER: Inhibition of human IPC-298 cell growth in a cell viability assay.
HCC1143 = test: cells; conditions: Homo sapiens;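 also: growth inhibition of human HCC1143 cells, read out with a cell viability assay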
Description: SANGER: Inhibition of human HCC1143 cell growth in a cell viability assay.

MFE-296 = test: SANGER: Inhibition of human MFE-296 cell growth in a cell viability assay.
EFE-184 = test: cells; conditions: Homo sapiens
Description: SANGER: Inhibition of human EFE-184 cell growth in a cell viability assay.

EW-7 = test: SANGER: Inhibition of human EW-7 cell growth in a cell viability assay.
PLC-PRF-5 = test: cells; conditions: Homo sapiens;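 also: growth inhibition of human PLC-PRF-5 cells, read out with a viability assay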
Description: SANGER: Inhibition of human PLC-PRF-5 cell growth in a cell viability assay.

NCI-H2227 = test: cells; conditions: Homo sapiens;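 also: growth inhibition of the human cell line, read out with a cell viability assay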
Description: SANGER: Inhibition of human NCI-H2227 cell growth in a cell viability assay.

DV-90 = test: cells; conditions: Homo sapiens;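 also: Read-out is a viability assay, with IC50 reflecting the drop in DV-90 cell growth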
Description: SANGER: Inhibition of human DV-90 cell growth in a cell viability assay.

COLO 205 = test: cells; conditions: Homo sapiens
Description: SANGER: Inhibition of human COLO-205 cell growth in a cell viability assay.

NCI-H838 = test: cells; conditions: Homo sapiens;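 also: growth inhibition of human NCI-H838 cells, read out by a cell viability assay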
Description: SANGER: Inhibition of human NCI-H838 cell growth in a cell viability assay.

MDA-MB-468 = test: cells; conditions: Homo sapiens
Description: SANGER: Inhibition of human MDA-MB-468 cell growth in a cell viability assay.

SNU-475 = test: cells; conditions: Homo sapiens
Description: SANGER: Inhibition of human SNU-475 cell growth in a cell viability assay.

MES-SA = test: cells; conditions: Homo sapiens;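 also: growth inhibition of human MES-SA cells, read out with a cell viability assay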
Description: SANGER: Inhibition of human MES-SA cell growth in a cell viability assay.

SK-CO-1 = test: cells; conditions: Homo sapiens;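 also: growth inhibition of SK-CO-1 cells, determined by a viability readout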
Description: SANGER: Inhibition of human SK-CO-1 cell growth in a cell viability assay.

DMS-53 = test: cells; conditions: Homo sapiens;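 also: cell viability assay measuring growth inhibition of human DMS-53 cells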
Description: SANGER: Inhibition of human DMS-53 cell growth in a cell viability assay.

Caov-3 cell line = test: cells; conditions: Homo sapiens;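 also: cell growth inhibition read out by a viability assay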
Description: SANGER: Inhibition of human Caov-3 cell growth in a cell viability assay.

RT-4 = test: SANGER: Inhibition of human RT4 cell growth in a cell viability assay.
SNG-M = test: cells; conditions: Homo sapiens
Description: SANGER: Inhibition of human SNG-M cell growth in a cell viability assay.

CCF-STTG1 = test: cells; conditions: Homo sapiens;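 also: growth inhibition of human CCF-STTG1 cells, determined with a cell viability read-out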
Description: SANGER: Inhibition of human CCF-STTG1 cell growth in a cell viability assay.

C-4-II = test: SANGER: Inhibition of human C-4-II cell growth in a cell viability assay.
H-EMC-SS = test: cells; conditions: Homo sapiens
Description: SANGER: Inhibition of human H-EMC-SS cell growth in a cell viability assay.

CHP-134 = test: SANGER: Inhibition of human CHP-134 cell growth in a cell viability assay.
NCI-H1666 = test: cells; conditions: Homo sapiens;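 also: growth inhibition of the cell line, read out with a cell viability assay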
Description: SANGER: Inhibition of human NCI-H1666 cell growth in a cell viability assay.

NCI-H2029 = test: cells; conditions: Homo sapiens;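 also: Read-out is a viability assay on the cultured cells, and IC50 is the concentration that suppresses cell growth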
Description: SANGER: Inhibition of human NCI-H2029 cell growth in a cell viability assay.

OC-314 = test: cells; conditions: Homo sapiens
Description: SANGER: Inhibition of human OC-314 cell growth in a cell viability assay.

ZR-75-30 = test: cells; conditions: Homo sapiens;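 also: growth inhibition of ZR-75-30 cells, measured with a cell viability readout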
Description: SANGER: Inhibition of human ZR-75-30 cell growth in a cell viability assay.

SW 1116 = test: cells; conditions: Homo sapiens;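 also: growth inhibition of SW1116 cells, read out with a cell viability assay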
Description: SANGER: Inhibition of human SW1116 cell growth in a cell viability assay.

YH-13 = test: cells; conditions: Homo sapiens;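 also: cell viability readout of growth suppression in the human YH-13 cell line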
Description: SANGER: Inhibition of human YH-13 cell growth in a cell viability assay.

NCI-H2291 = test: cells; conditions: Homo sapiens
Description: SANGER: Inhibition of human NCI-H2291 cell growth in a cell viability assay.

TGBC11TKB = test: cells; conditions: Homo sapiens;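 also: growth inhibition of human TGBC11TKB cells, measured by a cell viability assay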
Description: SANGER: Inhibition of human TGBC11TKB cell growth in a cell viability assay.

TI-73 = test: cells; conditions: Homo sapiens;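 also: cell viability assay measuring how much compounds suppress growth of the cultured cell line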
Description: SANGER: Inhibition of human TI-73 cell growth in a cell viability assay.

NCI-H1048 = test: cells; conditions: Homo sapiens;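 also: growth inhibition of human NCI-H1048 cells, read out with a cell viability assay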
Description: SANGER: Inhibition of human NCI-H1048 cell growth in a cell viability assay.

RH-18 = test: cells; conditions: Homo sapiens, Rh18;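 also: growth inhibition of human RH-18 cells, read out with a cell viability assay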
Description: SANGER: Inhibition of human RH-18 cell growth in a cell viability assay.

KNS-62 = test: cells; conditions: Homo sapiens;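 also: inhibition of cell growth, read out with a cell viability assay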
Description: SANGER: Inhibition of human KNS-62 cell growth in a cell viability assay.

BALL-1 = test: cells; conditions: Homo sapiens;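 also: growth inhibition of BALL-1 cells, read out with a cell viability assay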
Description: SANGER: Inhibition of human BALL-1 cell growth in a cell viability assay.

SW900 = test: cells; conditions: Homo sapiens;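 also: IC50 is the concentration that inhibits SW900 cell growth, measured by a cell viability assay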
Description: SANGER: Inhibition of human SW900 cell growth in a cell viability assay.

BT-549 = test: cells; conditions: Homo sapiens
Description: SANGER: Inhibition of human BT-549 cell growth in a cell viability assay.

D-566MG = test: cells; conditions: Homo sapiens
EPLC-272H = test: cells; conditions: Homo sapiens
Description: SANGER: Inhibition of human EPLC-272H cell growth in a cell viability assay.

NBsusSR = test: cells; conditions: Homo sapiens;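 also: growth inhibition of the human cell line, read out with a cell viability assay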
Description: SANGER: Inhibition of human NBsusSR cell growth in a cell viability assay.

LU-135 = test: cells; conditions: Homo sapiens
Description: SANGER: Inhibition of human LU-135 cell growth in a cell viability assay.

H9 = test: cells; conditions: Homo sapiens
Description: SANGER: Inhibition of human H9 cell growth in a cell viability assay.

CP67-MEL = test: SANGER: Inhibition of human CP67-MEL cell growth in a cell viability assay.
SKM-1 = test: SANGER: Inhibition of human SKM-1 cell growth in a cell viability assay.
RL95-2 = test: cells; conditions: Homo sapiens;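 also: RL95-2 growth inhibition determined through a cell viability readout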
Description: SANGER: Inhibition of human RL95-2 cell growth in a cell viability assay.

KP-N-RT-BM-1 = test: SANGER: Inhibition of human KP-N-RT-BM-1 cell growth in a cell viability assay.
NCI-H128 = test: SANGER: Inhibition of human NCI-H128 cell growth in a cell viability assay.
EW-12 = test: SANGER: Inhibition of human EW-12 cell growth in a cell viability assay.
NCI-H2107 = test: SANGER: Inhibition of human NCI-H2107 cell growth in a cell viability assay.

Compound: CO[C@@]12[C@H](COC(N)=O)C3=C(C(=O)C(C)=C(N)C3=O)N1C[C@@H]1N[C@@H]12 [MITOMYCIN]
- IC50 (Calu-1): 4810 nM
- IC50 (TT): 3680 nM
- IC50 (NCI-H1734): 137 nM
- IC50 (IPC-298): 1230 nM
- IC50 (HCC1143): 1070 nM
- IC50 (MFE-296): 286 nM
- IC50 (EFE-184): 1380 nM
- IC50 (EW-7): < 62.5 nM
- IC50 (PLC-PRF-5): 4190 nM
- IC50 (NCI-H2227): 6320 nM
- IC50 (DV-90): 2920 nM
- IC50 (COLO 205): < 62.5 nM
- IC50 (NCI-H838): 1230 nM
- IC50 (MDA-MB-468): 345 nM
- IC50 (SNU-475): 813 nM
- IC50 (MES-SA): 145 nM
- IC50 (SK-CO-1): 202 nM
- IC50 (DMS-53): 809 nM
- IC50 (Caov-3 cell line): 162 nM
- IC50 (RT-4): 1700 nM
- IC50 (SNG-M): 134 nM
- IC50 (CCF-STTG1): 216 nM
- IC50 (C-4-II): 104 nM

Compound: C/C=C(/C)C(=O)O[C@H]1C(C)=C2[C@H]([C@@H]1OC(=O)CCCCCCC)[C@@](C)(OC(C)=O)C[C@H](OC(=O)CCC)[C@@]1(O)[C@H]2OC(=O)[C@@]1(C)O [THAPSIGARGIN]
- IC50 (Calu-1): 2.1 nM
- IC50 (TT): 217 nM
- IC50 (NCI-H1734): 1.48 nM
- IC50 (IPC-298): 6.54 nM
- IC50 (HCC1143): 2.07 nM
- IC50 (MFE-296): 2.95 nM
- IC50 (EFE-184): > 512 nM
- IC50 (EW-7): 6.34 nM
- IC50 (PLC-PRF-5): 91.8 nM
- IC50 (NCI-H2227): > 512 nM
- IC50 (DV-90): 28.8 nM
- IC50 (COLO 205): 3.15 nM
- IC50 (NCI-H838): 35.3 nM
- IC50 (MDA-MB-468): 3.98 nM
- IC50 (SNU-475): > 512 nM
- IC50 (MES-SA): < 2 nM
- IC50 (SK-CO-1): 17 nM
- IC50 (DMS-53): 380 nM
- IC50 (Caov-3 cell line): 37.2 nM
- IC50 (RT-4): 3.74 nM
- IC50 (SNG-M): < 2 nM
- IC50 (CCF-STTG1): 67.3 nM
- IC50 (C-4-II): 20.6 nM

Compound: O=c1cc(N2CCOCC2)oc2c(-c3cccc4c3sc3ccccc34)cccc12
- IC50 (H-EMC-SS): > 2000 nM
- IC50 (CHP-134): > 2000 nM
- IC50 (NCI-H1666): > 2000 nM
- IC50 (NCI-H2029): > 2000 nM
- IC50 (OC-314): > 2000 nM
- IC50 (ZR-75-30): > 2000 nM
- IC50 (SW 1116): > 2000 nM
- IC50 (YH-13): > 2000 nM
- IC50 (NCI-H2291): > 2000 nM
- IC50 (TGBC11TKB): > 2000 nM
- IC50 (TI-73): > 2000 nM
- IC50 (NCI-H1048): > 2000 nM
- IC50 (RH-18): > 2000 nM
- IC50 (KNS-62): > 2000 nM
- IC50 (BALL-1): > 2000 nM
- IC50 (SW900): > 2000 nM
- IC50 (BT-549): > 2000 nM
- IC50 (D-566MG): > 2000 nM
- IC50 (EPLC-272H): > 2000 nM
- IC50 (NBsusSR): > 2000 nM
- IC50 (LU-135): > 2000 nM

Compound: COc1cc(Nc2c(C#N)cnc3cc(OCCCN4CCN(C)CC4)c(OC)cc23)c(Cl)cc1Cl [BOSUTINIB]
- IC50 (H-EMC-SS): > 2000 nM
- IC50 (NCI-H1666): > 2000 nM
- IC50 (NCI-H2029): > 2000 nM
- IC50 (OC-314): 870 nM
- IC50 (ZR-75-30): > 2000 nM
- IC50 (SW 1116): > 2000 nM
- IC50 (YH-13): > 2000 nM
- IC50 (H9): 435 nM
- IC50 (NCI-H2291): > 2000 nM
- IC50 (TGBC11TKB): > 2000 nM
- IC50 (TI-73): 1020 nM
- IC50 (NCI-H1048): > 2000 nM
- IC50 (RH-18): > 2000 nM
- IC50 (KNS-62): > 2000 nM
- IC50 (BALL-1): > 2000 nM
- IC50 (SW900): > 2000 nM
- IC50 (BT-549): > 2000 nM
- IC50 (D-566MG): 1570 nM
- IC50 (EPLC-272H): > 2000 nM
- IC50 (NBsusSR): > 2000 nM
- IC50 (LU-135): > 2000 nM

Compound: CCNc1cc(N[C@H]2CC[C@@H](O)CC2)nc(Nc2ccc3c(ccn3Cc3ccccc3)c2)n1
- IC50 (CP67-MEL): > 5120 nM
- IC50 (SKM-1): > 5120 nM
- IC50 (RL95-2): 3200 nM
- IC50 (KP-N-RT-BM-1): > 5120 nM
- IC50 (NCI-H128): > 5120 nM
- IC50 (EW-12): > 5120 nM
- IC50 (NCI-H2107): > 5120 nM

Compound: C/C(O)=C(\C#N)C(=O)Nc1cc(Br)ccc1Br
- IC50 (Calu-1): > 16000 nM
- IC50 (TT): > 16000 nM
- IC50 (NCI-H1734): > 16000 nM
- IC50 (IPC-298): > 16000 nM
- IC50 (HCC1143): > 16000 nM
- IC50 (MFE-296): > 16000 nM
- IC50 (EFE-184): > 16000 nM
- IC50 (EW-7): > 16000 nM
- IC50 (PLC-PRF-5): > 16000 nM
- IC50 (NCI-H2227): > 16000 nM
- IC50 (DV-90): > 16000 nM
- IC50 (COLO 205): > 16000 nM
- IC50 (NCI-H838): > 16000 nM
- IC50 (MDA-MB-468): > 16000 nM
- IC50 (SNU-475): > 16000 nM
- IC50 (MES-SA): > 16000 nM
- IC50 (SK-CO-1): > 16000 nM
- IC50 (DMS-53): > 16000 nM
- IC50 (Caov-3 cell line): > 16000 nM
- IC50 (RT-4): > 16000 nM
- IC50 (SNG-M): > 16000 nM
- IC50 (CCF-STTG1): > 16000 nM
- IC50 (C-4-II): > 16000 nM

Compound: COc1cc(C)c(Sc2cnc(NC(=O)c3ccc(CNC(C)C(C)(C)C)cc3)s2)cc1C(=O)N1CCN(C(C)=O)CC1 (stereo not given)
- IC50 (CP67-MEL): > 10200 nM
- IC50 (SKM-1): > 10200 nM
- IC50 (RL95-2): 4510 nM
- IC50 (KP-N-RT-BM-1): > 10200 nM
- IC50 (NCI-H128): > 10200 nM
- IC50 (EW-12): > 10200 nM
- IC50 (NCI-H2107): > 10200 nM
